Values quoted from earlier work, collected in patent US11039615B2, “Methods of processing chlorhexidine-containing polymerizable compositions and antimicrobial articles formed thereby” (entrotech life sciences, inc., priority 2014, dated 2021).

Conditions: documented in Ranganathan 1996

Compound: [H]/N=C(\N/C(=N/[H])NCCCCCCNC(=N)NC(=N)Nc1ccc(Cl)cc1)Nc1ccc(Cl)cc1 [chlorhexidine]
- temperature at which chlorhexidine decomposes to PCA: ≥ 40 °C
